From patent US20120107820A1, “Multiplexed Quantitative PCR End Point Analysis of Nucleic Acid Targets” (MASSACHUSETTS INSTITUTE OF TECHNOLOGY, priority 2009, published 2012)

Columns and labels:
[1] = test system: HL60 (human promyelocytic leukemia) cells; experiment: Gene expression profiling of tretinoin-treated HL60 cells, LMA RT-PCR amplicons detected on encoded hydrogel particles; assay type: cell-based; settings: for Raw Signal (AU) / Differential Expression: log(tret/DMSO): HL60 cells; for Raw Signal (AU): 1 μmol/l tretinoin, five days; for Normalized Signal: normalized to LUA95, tretinoin-treated HL60 cells; for Differential Expression: log(tret/DMSO): tretinoin vs DMSO
Procedure: (§1) Gene expression profiling experiment were conducted to detect and quantify the effects of drug treatment on expression of certain target mRNAs in a complex sample using hydrogel particles. Applicants repeated previously reported multiplex ligation-mediated PCR experiments that used Luminex FlexMAP (Luminex, Austin, Tex., USA) optically addressed barcoded microspheres in side by side experiments with hydrogel particles using an endogenous reference gene for quantification. The methods used are described in Peck et al. A Method for High-Throughput Gene Expression Signature Analysis, Genome Biology, 7:R61, 2006; details are set forth in Example 3. Although the Peck et al experiments were done with traditional RT-PCR and hybridization in multiple steps, the experiments are amendable to embodiments of the present methods for one chamber quantitative multiplexed end point PCR.
(§2) HL60 (human promyelocytic leukemia) cells were cultured in the presence of either […] in DMSO or DMSO alone, and quantification was based on comparison of target mRNA expression to the reference gene […]. […] Upstream and downstream probe pairs designed for each of the targets by Peck were used to generate the amplicons. Unique upstream biotin-conjugated primers for each target included a 24 nucleotide bar code sequence for each of the five mRNAs. Applicants designed probes for immobilization on encoded hydrogel particles that were complementary to the 24 nucleotide bar code on each unique upstream primer to enable capture of the amplicons on encoded hydrogel particles. Methods for making the particles are described in Example 3. Each encoded hydrogel particle was made with multiple probe regions directed to each of the five mRNAs (four targets and one reference gene) and a control, respectively.
(§3) Total RNA was isolated from the HL60 cells, reverse-transcribed and amplified using a simple RT-PCR method. In order to compare the sensitivity of the encoded hydrogel particles to the Luminex magnetic particles, the exact protocol described by Peck et al. was followed. There were 39 cycles in which: there was an initial denaturation at 92° C. for 9 minutes, followed by denaturation at 92° C. for 30 s, followed by annealing at 60° C. for 30 s, extension at 72° C. for 30 s for 39 cycles, and a final extension at 72° C. for 5 minutes. After a final denaturation at 95° C. for two minutes hybridization was carried out at 45° C. for 60 minutes. Note that in the preferred embodiments of the present invention the hybridization temperature is from 2-15° C. […] than the primer annealing temperature to optimize specificity. By contrast, the hybridization temperature (45° C.) used by Peck et al. was 15° C. lower than the annealing temperature.
(§4) After hybridization, the respective Luminex and hydrogel particles were rinsed, incubated with streptavidin-phycoerythrin to fluorescently label the primers, rinsed again, and imaged for fluorescence. The fluorescent signals obtained were quantified and normalized against the internal reference (LUA95) after subtracting the background signal from the control region on each particle (CTL).
(§5) Similar to the protocol described in Peck et al., Genome Biology, 7:R61, 2006, HL60 (human promyelocytic leukemia) cells were cultured in RPMI supplemented with 10% fetal bovine serum and antibiotics. Cells were treated with 1 μmol/l tretinoin (all-trans retinoic acid; Sigma-Aldrich, St Louis, Mo., USA) in dimethyl sulfoxide (DMSO; final concentration 0.1%) or DMSO alone for five days. Total RNA was isolated from bulk cultures with TRIzol Reagent (Invitrogen, Carlsbad, Calif., USA), in accordance with the manufacturer's directions. For the classification exercise, microtiter plate cultures were treated with 200 nmol/l tretinoin or DMSO for two days to mimic the submaximal signatures likely to be encountered in a small molecule screen, and were and prepared for mRNA capture by the addition of Lysis Buffer (RNAture, Irvine, Calif., USA). […]

[2] = test system: HL60 (human promyelocytic leukemia) cells; experiment: Gene expression profiling of tretinoin-treated HL60 cells, LMA RT-PCR amplicons detected on Luminex microspheres; assay type: cell-based; settings: for Raw Signal (AU) / Differential Expression: log(tret/DMSO): HL60 cells; for Raw Signal (AU): 1 μmol/l tretinoin, five days; for Normalized Signal: normalized to LUA95, tretinoin-treated HL60 cells; for Differential Expression: log(tret/DMSO): tretinoin vs DMSO
Procedure: as §1, §2, §3, §4, §5

[3] = LUA95 (GAPDH3 internal reference, NM_002046)

CC1=C(/C=C/C(C)=C/C=C/C(C)=C/C(=O)O)C(C)(C)CCC1 [tretinoin]
Raw Signal (AU) ([1]; LUA7 mRNA (NM_000962)): 7.44 AU | Normalized Signal ([1]; LUA7 mRNA (NM_000962)): 0.084 | Differential Expression: log(tret/DMSO) ([1]; LUA7 mRNA (NM_000962)): 0.486 | Raw Signal (AU) ([1]; LUA27 mRNA (NM_006432)): 14.64 AU | Normalized Signal ([1]; LUA27 mRNA (NM_006432)): 0.166 | Differential Expression: log(tret/DMSO) ([1]; LUA27 mRNA (NM_006432)): 0.818 | Raw Signal (AU) ([1]; LUA59 mRNA (NM_004095)): 1.14 AU | Normalized Signal ([1]; LUA59 mRNA (NM_004095)): 0.013 | Differential Expression: log(tret/DMSO) ([1]; LUA59 mRNA (NM_004095)): −0.841 | Raw Signal (AU) ([1]; LUA68 mRNA (NM_003132)): 2.99 AU | Normalized Signal ([1]; LUA68 mRNA (NM_003132)): 0.034 | Differential Expression: log(tret/DMSO) ([1]; LUA68 mRNA (NM_003132)): −0.822 | Raw Signal (AU) [1, 3]: 88.45 AU | Raw Signal (AU) ([2]; LUA7 mRNA (NM_000962)): 389.3 AU | Normalized Signal ([2]; LUA7 mRNA (NM_000962)): 0.222 | Differential Expression: log(tret/DMSO) ([2]; LUA7 mRNA (NM_000962)): 0.785 | Raw Signal (AU) ([2]; LUA27 mRNA (NM_006432)): 775.5 AU | Normalized Signal ([2]; LUA27 mRNA (NM_006432)): 0.442 | Differential Expression: log(tret/DMSO) ([2]; LUA27 mRNA (NM_006432)): 0.871 | Raw Signal (AU) ([2]; LUA59 mRNA (NM_004095)): 100.3 AU | Normalized Signal ([2]; LUA59 mRNA (NM_004095)): 0.057 | Differential Expression: log(tret/DMSO) ([2]; LUA59 mRNA (NM_004095)): −0.576 | Raw Signal (AU) ([2]; LUA68 mRNA (NM_003132)): 178.0 AU | Normalized Signal ([2]; LUA68 mRNA (NM_003132)): 0.101 | Differential Expression: log(tret/DMSO) ([2]; LUA68 mRNA (NM_003132)): −0.619 | Raw Signal (AU) [2, 3]: 1754.4 AU
